Data: patent US20220211704A1, “INHIBITORS OF HUMAN IMMUNODEFICIENCY VIRUS REPLICATION” (VIIV HEALTHCARE UK (No. 5) LIMITED, priority 2019, published 2022)

Assays:
[1] = Compound cytotoxicity, XTT-based colorimetric assay; assay type: cell-based; conditions: human; uninfected MT2 cells, day 4, XTT
Description: Compound cytotoxicity and the corresponding CC50 values were determined using the same protocol as described in the antiviral assay except that uninfected cells were used. Cytotoxicity was assessed on day 4 in uninfected MT2 cells by using an XTT (2,3-bis[2-Methoxy-4-nitro-5-sulfophenyl]-2H-tetrazolium-5-carboxyanilide inner salt)-based colorimetric assay (Sigma-Aldrich, St Louis, Mo.).

recombinant NL4-3 virus = test: HIV cell culture assay (Renilla luciferase reporter virus in MT-2 cells); assay type: cell-based; conditions: Human immunodeficiency virus 1, NL43, MT2
Description: HIV cell culture assay—MT-2 cells, 293T cells and the proviral DNA clone of NL4-3 virus were obtained from the NIH AIDS Research and Reference Reagent Program. MT-2 cells were propagated in RPMI 1640 media supplemented with 10% heat inactivated fetal bovine serum (FBS), […]. The 293T cells were propagated in DMEM media supplemented with 10% heat inactivated FBS, […]. A recombinant NL4-3 proviral clone, in which a section of the nef gene was replaced with the Renilla luciferase gene, was used to make the reference virus used in these studies. The recombinant virus was prepared through transfection of the recombinant NL4-3 proviral clone into 293T cells using Transit-293 Transfection Reagent from Mirus Bio LLC (Madison, Wis.). Supernatent was harvested after 2-3 days and the amount of virus present was titered in MT-2 cells using luciferase enzyme activity as a marker by measuring luciferase enzyme activity. Luciferase was quantitated using the EnduRen Live Cell Substrate from Promega (Madison, Wis.). Antiviral activities of compounds toward the recombinant virus were quantified by measuring luciferase activity in MT-2 cells infected for 4-5 days with the recombinant virus in the presence of serial dilutions of the compound. […]

Compound	CC50 at 4 day [1] [nM]	EC50 (recombinant NL4-3 virus) [nM]
Cn1nc(NS(C)(=O)=O)c2c(Cl)ccc(-n3c([C@H](Cc4cc(F)cc(F)c4)NC(=O)Cn4nc(C(F)F)c5c4C(F)(F)C4CC54)nc4cc(C#CC(C)(C)S(C)(=O)=O)ccc4c3=O)c21 (stereo in doubt) [Example 1, N—((S)-1-(3-(4-chloro-1-methyl-3-(methylsulfonamido)-1H-indazol-7-yl)-7-(3-methyl-3-(methylsulfonyl)but-1-yn-1-yl)-4-oxo-3,4-dihydroquinazolin-2-yl)-2-(3,5-difluorophenyl)ethyl)-2-((3bS,4aR)-3-(difluoromethyl)-5,5-difluoro-3b,4,4a,5-tetrahydro-1H-cyclopropa[3,4]cyclopenta[1,2-c]pyrazol-1-yl)acetamide]	> 500	0.035
CC(C)(C#Cc1ccc2c(=O)n(-c3ccc(Cl)c4c(NS(=O)(=O)C5CC5)nn(CC(F)F)c34)c([C@H](Cc3cc(F)cc(F)c3)NC(=O)Cn3nc(C(F)F)c4c3C(F)(F)C3CC43)nc2c1)S(C)(=O)=O (stereo in doubt) [Example 2, N—((S)-1-(3-(4-chloro-3-(cyclopropanesulfonamido)-1-(2,2-difluoroethyl)-1H-indazol-7-yl)-7-(3-methyl-3-(methylsulfonyl)but-1-yn-1-yl)-4-oxo-3,4-dihydroquinazolin-2-yl)-2-(3,5-difluorophenyl)ethyl)-2-((3bS,4aR)-3-(difluoromethyl)-5,5-difluoro-3b,4,4a,5-tetrahydro-1H-cyclopropa[3,4]cyclopenta[1,2-c]pyrazol-1-yl)acetamide]	> 500	0.047
